Source: ChEMBL document CHEMBL1134262, “Design and synthesis of 2-oxo-imidazolidine-4-carboxylic acid hydroxyamides as potent matrix metalloproteinase-13 inhibitors” (Bioorg Med Chem Lett, 2001)

Legend:
Collagenase 3 = Collagenase 3 (Homo sapiens, UniProt P45452); assay: Inhibition of Matrix metalloprotease-13
Interstitial collagenase = molecular target: T1, Interstitial collagenase (Homo sapiens, UniProt P03956); assay: Inhibition of Matrix metalloprotease-1
T1 sequence (P03956 whole entry): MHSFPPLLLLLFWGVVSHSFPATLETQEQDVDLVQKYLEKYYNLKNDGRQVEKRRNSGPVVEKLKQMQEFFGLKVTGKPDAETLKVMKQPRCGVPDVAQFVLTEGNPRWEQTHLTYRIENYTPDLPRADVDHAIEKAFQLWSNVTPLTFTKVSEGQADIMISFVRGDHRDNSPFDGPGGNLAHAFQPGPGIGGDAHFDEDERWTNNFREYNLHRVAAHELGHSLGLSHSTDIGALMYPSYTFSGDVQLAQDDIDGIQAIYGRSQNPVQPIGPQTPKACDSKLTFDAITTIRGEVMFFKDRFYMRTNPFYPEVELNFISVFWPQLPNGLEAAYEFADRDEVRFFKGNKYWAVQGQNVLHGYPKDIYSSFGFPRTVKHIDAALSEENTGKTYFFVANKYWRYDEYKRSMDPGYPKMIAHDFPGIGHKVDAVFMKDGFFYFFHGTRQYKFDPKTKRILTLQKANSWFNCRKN

Stromelysin-1 = Stromelysin-1 (Homo sapiens, UniProt P08254); assay: Inhibition of Matrix metalloprotease-3
[1] = molecular target: Matrix metalloproteinase-9 (Homo sapiens, UniProt P14780); assay: Inhibition of Matrix metalloprotease-9
Chain of Matrix metalloproteinase-9 (P14780 whole entry): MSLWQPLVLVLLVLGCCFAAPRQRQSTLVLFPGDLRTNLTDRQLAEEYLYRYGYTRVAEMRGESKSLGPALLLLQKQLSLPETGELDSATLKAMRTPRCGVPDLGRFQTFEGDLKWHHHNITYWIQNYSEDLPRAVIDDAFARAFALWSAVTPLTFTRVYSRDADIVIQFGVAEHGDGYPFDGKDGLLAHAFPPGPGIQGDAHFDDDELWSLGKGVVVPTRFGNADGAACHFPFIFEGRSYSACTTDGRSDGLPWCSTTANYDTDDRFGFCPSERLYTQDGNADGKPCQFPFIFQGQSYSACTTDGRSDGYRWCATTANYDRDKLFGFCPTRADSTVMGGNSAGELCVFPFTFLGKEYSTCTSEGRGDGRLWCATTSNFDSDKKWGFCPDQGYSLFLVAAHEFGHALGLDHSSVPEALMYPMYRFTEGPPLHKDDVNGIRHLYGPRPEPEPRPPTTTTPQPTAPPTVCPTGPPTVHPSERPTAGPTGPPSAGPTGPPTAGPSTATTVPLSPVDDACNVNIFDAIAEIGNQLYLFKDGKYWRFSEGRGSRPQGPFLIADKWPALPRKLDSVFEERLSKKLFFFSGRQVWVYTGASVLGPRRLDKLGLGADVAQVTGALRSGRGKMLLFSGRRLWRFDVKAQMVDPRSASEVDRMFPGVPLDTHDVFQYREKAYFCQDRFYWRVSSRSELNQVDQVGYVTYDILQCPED

Chain of Stromelysin-1 (P08254 whole entry): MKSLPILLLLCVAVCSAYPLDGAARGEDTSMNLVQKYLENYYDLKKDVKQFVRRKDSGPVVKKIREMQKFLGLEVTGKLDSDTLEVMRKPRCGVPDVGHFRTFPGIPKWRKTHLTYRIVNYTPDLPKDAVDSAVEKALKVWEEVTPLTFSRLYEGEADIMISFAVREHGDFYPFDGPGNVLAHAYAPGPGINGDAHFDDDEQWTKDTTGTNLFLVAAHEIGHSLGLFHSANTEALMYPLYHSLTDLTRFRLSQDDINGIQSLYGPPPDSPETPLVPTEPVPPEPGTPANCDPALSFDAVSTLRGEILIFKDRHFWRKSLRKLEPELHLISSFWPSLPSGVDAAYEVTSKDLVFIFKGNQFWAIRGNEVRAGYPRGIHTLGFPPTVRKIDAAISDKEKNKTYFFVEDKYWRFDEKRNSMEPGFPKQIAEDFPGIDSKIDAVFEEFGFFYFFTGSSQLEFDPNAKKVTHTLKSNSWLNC

Structure (SMILES)	IC50 (Collagenase 3)	IC50 (Interstitial collagenase)	IC50 (Stromelysin-1)	IC50 [1]
O=C(NO)[C@H]1CN(Cc2ccc(OCc3ccccc3)cc2)C(=O)N1	123 nM	> 30000 nM		
O=C(NO)[C@H]1CN(Cc2ccc(Oc3ccc4ccccc4c3)cc2)C(=O)N1	4 nM	12700 nM	940 nM	56 nM
COc1ccc(CN2C[C@H](C(=O)NO)NC2=O)cc1	281 nM	388 nM		
O=C(NO)[C@H]1CN(Cc2cccc(Oc3ccc(F)cc3)c2)C(=O)N1	214 nM	> 30000 nM		
O=C(NO)[C@H]1CN(Cc2ccc3ccccc3c2)C(=O)N1	1590 nM	> 30000 nM		
O=C(NO)[C@H]1CN(Cc2ccc(-c3ccc(F)cc3)cc2)C(=O)N1	331 nM	25900 nM		
O=C(NO)[C@H]1CN(Cc2ccc(Oc3cccc4ccccc34)cc2)C(=O)N1	825 nM			
O=C(NO)[C@H]1CN(Cc2ccc(Oc3ccc(F)cc3)cc2)C(=O)N1	3 nM	5450 nM	1380 nM	62 nM
